Source: US10556865B2, “Synergistic herbicidal composition containing certain pyridine or pyrimidine carboxylic acids and certain cereal and rice herbicides” (Dow AgroSciences, LLC, priority 2007, dated 2020)
Where “and” joins values, the source holds several entries; their conditions need not be identical. Equal values may be shown once.

How the values were obtained:
Assay type in all cases: in vivo
[1] = tested on: canola (Brassica napus L; BRSNN); experiment: Postemergence herbicidal activity of mixtures in cereal crops (greenhouse, visual injury)
How it was run: (§1)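 Compounds A and B, as methyl ester or TEA/K salts, are tested alone and mixed with a second cereal herbicide on greenhouse plants at the second–third true leaf stage. Spray volume is 187 L/ha. Percent visual injury at 20–22 days is compared with Colby-expected mixture response.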

[2] = tested on: lady's-thumb (Polygonum persicaria L; POLPE); experiment: as above
How it was run: as §1

[3] = tested on: Italian ryegrass (Lolium multiflorum L; LOLMU); experiment: as above; settings: for LOLMU: Table 13
How it was run: as §1

[4] = tested on: annual bluegrass (Poa annua L; POAAN); experiment: as above
How it was run: as §1

[5] = tested on: downy brome (Bromus tectorum L; BROTE); experiment: as above
How it was run: as §1

[6] = tested on: wild mustard (Sinapis arvensis L; SINAR); experiment: as above
How it was run: as §1

Cyperus iria L. (CYPIR) = experiment: Postemergence herbicidal mixtures for weed control in direct seeded rice (greenhouse, visual % injury); settings: for % Injury Ob: CYPIR
[7] = tested on: kochia (Kochia scoparia L; KCHSC); experiment: Postemergence herbicidal activity of mixtures in cereal crops (greenhouse, visual injury)
How it was run: as §1

## COC(=O)c1nc(-c2ccc(Cl)c(OC)c2F)cc(N)c1Cl [Compound A Methyl, 4-amino-3-chloro-6-(4-chloro-2-fluoro-3-methoxyphenyl)pyridine-2-carboxylic acid methyl ester]
[1]; 8.75 g/ha
  BRSNN Ob: 50%
[1]; 17.5 g/ha
  BRSNN Ob: 50%
[1]; 35 g/ha
  BRSNN Ob: 50%
[1]; 70 g/ha
  BRSNN Ob: 50%
[2]; 8.75 g/ha
  POLPE Ob: 50%
[2]; 17.5 g/ha
  POLPE Ob: 50%
[2]; 35 g/ha
  POLPE Ob: 65%
[2]; 70 g/ha
  POLPE Ob: 70%
[3]; 35 g/ha, Table 10
  LOLMU Ob: 3%
[3]; 70 g/ha, Table 10
  LOLMU Ob: 20%
[3]; 140 g/ha, Table 10
  LOLMU Ob: 40%
[4]; 35 g/ha, Table 9
  POAAN Ob: 0%
[4]; 35 g/ha, Table 10
  POAAN Ob: 0%
[4]; 70 g/ha, Table 9
  POAAN Ob: 3%
[4]; 70 g/ha, Table 10
  POAAN Ob: 3%
[4]; 140 g/ha, Table 9
  POAAN Ob: 3%
[4]; 140 g/ha, Table 10
  POAAN Ob: 3%
[5]; 35 g/ha, Table 8
  BROTE Ob: 0.0%
[5]; 35 g/ha, Table 9
  BROTE Ob: 0%
[5]; 35 g/ha, Table 10
  BROTE Ob: 0%
[5]; 70 g/ha, Table 8
  BROTE Ob: 0.0%
[5]; 70 g/ha, Table 9
  BROTE Ob: 0%
[5]; 70 g/ha, Table 10
  BROTE Ob: 0%
[5]; 140 g/ha, Table 8
  BROTE Ob: 13%
[5]; 140 g/ha, Table 9
  BROTE Ob: 13%
[5]; 140 g/ha, Table 10
  BROTE Ob: 13%
[6]; 17.5 g/ha
  SINAR Ob: 70% and 80%
[6]; 35 g/ha
  SINAR Ob: 80% and 85%
[6]; 70 g/ha
  SINAR Ob: 85%
Cyperus iria L. (CYPIR); 35 g/ha alone
  % Injury Ob: 50%
Cyperus iria L. (CYPIR); alone 4.38 g/ha
  % Injury CYPIR Ob: 70%
Cyperus iria L. (CYPIR); alone 35 g/ha
  % Injury CYPIR Ob: 50%

## COc1c(Cl)ccc(-c2cc(N)c(Cl)c(C(=O)O)n2)c1F [Compound A TEA, 4-amino-3-chloro-6-(4-chloro-2-fluoro-3-methoxyphenyl)pyridine-2-carboxylic acid]
[2]; 8.75 g/ha alone
  POLPE Ob: 30%
[2]; 17.5 g/ha alone
  POLPE Ob: 41%
[2]; 35 g/ha alone
  POLPE Ob: 68%
[7]; 8.75 g/ha
  KCHSC Ob: 35%
[7]; 8.75 g/ha alone
  KCHSC Ob: 65%
[7]; 17.5 g/ha
  KCHSC Ob: 60%
[7]; 17.5 g/ha alone
  KCHSC Ob: 77%
[7]; 35 g/ha
  KCHSC Ob: 65%
[7]; 35 g/ha alone
  KCHSC Ob: 92%
[7]; 70 g/ha
  KCHSC Ob: 70%
[7]; 70 g/ha alone
  KCHSC Ob: 99%
[3]; 35 g/ha
  LOLMU: 0%
[3]; 35 g/ha, Table 14
  LOLMU Ob: 0%
[3]; 35 g/ha, Table 17
  LOLMU Ob: 0%
[3]; 70 g/ha
  LOLMU: 0%
[3]; 70 g/ha, Table 14
  LOLMU Ob: 3%
[3]; 70 g/ha, Table 17
  LOLMU Ob: 0%
[3]; 140 g/ha
  LOLMU: 0%
[3]; 140 g/ha, Table 14
  LOLMU Ob: 3%
[3]; 140 g/ha, Table 17
  LOLMU Ob: 5%
[4]; 35 g/ha, Table 16
  POAAN Ob: 0%
[4]; 35 g/ha, Table 17
  POAAN Ob: 0%
[4]; 70 g/ha, Table 16
  POAAN Ob: 0%
[4]; 70 g/ha, Table 17
  POAAN Ob: 0%
[4]; 140 g/ha, Table 16
  POAAN Ob: 0%
[4]; 140 g/ha, Table 17
  POAAN Ob: 0%
[5]; 35 g/ha, Table 15
  BROTE Ob: 0%
[5]; 35 g/ha, Table 16
  BROTE Ob: 0%
[5]; 35 g/ha, Table 18
  BROTE Ob: 0%
[5]; 70 g/ha, Table 15
  BROTE Ob: 0%
[5]; 70 g/ha, Table 16
  BROTE Ob: 0%
[5]; 70 g/ha, Table 18
  BROTE Ob: 3%
[5]; 140 g/ha, Table 15
  BROTE Ob: 0%
[5]; 140 g/ha, Table 16
  BROTE Ob: 0%
[5]; 140 g/ha, Table 18
  BROTE Ob: 3%
[6]; 8.75 g/ha
  SINAR Ob: 35%
[6]; 17.5 g/ha
  SINAR Ob: 60%
[6]; 35 g/ha
  SINAR Ob: 65%
[6]; 70 g/ha
  SINAR Ob: 70%

## COC(=O)c1nc(-c2ccc(Cl)c(OC)c2F)nc(N)c1Cl [Compound B Methyl, 6-amino-5-chloro-2-(4-chloro-2-fluoro-3-methoxyphenyl)pyrimidine-4-carboxylic acid methyl ester]
[1]; 8.75 g/ha alone
  BRSNN Ob: 20%
[1]; 17.5 g/ha alone
  BRSNN Ob: 35%
[1]; 35 g/ha alone
  BRSNN Ob: 50%
[1]; 70 g/ha alone
  BRSNN Ob: 55%

## O=C(O)c1c(Cl)ccc2cc(Cl)cnc12 [Quinclorac]
[7]; 140 g/ha alone
  KCHSC Ob: 0%
Cyperus iria L. (CYPIR); 140 g/ha alone
  % Injury Ob: 0%
